# Results: ChEMBL document CHEMBL1145379 (J Med Chem, 2007)
# Legend:
# Coagulation factor XI = Coagulation factor XI (Homo sapiens, UniProt P03951); assay: Inhibition of human F11a
# Canis familiaris [1] = assay: Ex vivo anticoagulant potency in dog assessed as prolongation of prothrombin time at 10 mg/kg, po after 2 hrs; format: functional, Canis lupus familiaris
# Prothrombin = Prothrombin (Homo sapiens, UniProt P00734); assay: Inhibition of human F2a; settings: read-out: Ki app
# Coagulation factor X [2] = target: Coagulation factor X (Rattus norvegicus, UniProt Q63207); assay: Inhibition of rat F10a
# Sequence of Coagulation factor X (Rattus norvegicus, UniProt Q63207) (Q63207 41-180 limits assumed): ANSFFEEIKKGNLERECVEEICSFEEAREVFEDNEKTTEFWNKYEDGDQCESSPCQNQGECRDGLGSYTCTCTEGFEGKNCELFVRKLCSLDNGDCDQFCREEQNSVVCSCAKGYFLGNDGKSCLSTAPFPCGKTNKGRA
# Sequence of Coagulation factor X (Rattus norvegicus, UniProt Q63207) (Q63207 232-482 limits assumed): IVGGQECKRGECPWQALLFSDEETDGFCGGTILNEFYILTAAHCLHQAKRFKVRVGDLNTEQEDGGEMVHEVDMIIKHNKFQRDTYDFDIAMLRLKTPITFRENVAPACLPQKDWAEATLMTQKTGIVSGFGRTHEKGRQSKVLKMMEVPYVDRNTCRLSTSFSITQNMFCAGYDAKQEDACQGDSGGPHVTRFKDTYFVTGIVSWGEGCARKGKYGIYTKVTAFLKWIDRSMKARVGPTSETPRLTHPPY
# Plasma kallikrein = Plasma kallikrein (Homo sapiens, UniProt P03952); assay: Inhibition of human kallikrein
# Sequence of Plasma kallikrein (P03952 20-390 limits assumed): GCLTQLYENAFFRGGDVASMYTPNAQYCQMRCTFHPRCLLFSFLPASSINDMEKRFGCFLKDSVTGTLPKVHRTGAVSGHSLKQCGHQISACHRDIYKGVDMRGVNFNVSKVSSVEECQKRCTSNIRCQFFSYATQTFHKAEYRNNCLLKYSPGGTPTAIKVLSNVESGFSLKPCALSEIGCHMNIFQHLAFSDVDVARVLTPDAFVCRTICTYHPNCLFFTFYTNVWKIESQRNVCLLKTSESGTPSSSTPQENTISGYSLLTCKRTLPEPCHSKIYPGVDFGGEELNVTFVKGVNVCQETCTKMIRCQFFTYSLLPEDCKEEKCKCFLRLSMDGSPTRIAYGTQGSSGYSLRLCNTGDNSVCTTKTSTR
# Sequence of Plasma kallikrein (P03952 391-638 limits assumed): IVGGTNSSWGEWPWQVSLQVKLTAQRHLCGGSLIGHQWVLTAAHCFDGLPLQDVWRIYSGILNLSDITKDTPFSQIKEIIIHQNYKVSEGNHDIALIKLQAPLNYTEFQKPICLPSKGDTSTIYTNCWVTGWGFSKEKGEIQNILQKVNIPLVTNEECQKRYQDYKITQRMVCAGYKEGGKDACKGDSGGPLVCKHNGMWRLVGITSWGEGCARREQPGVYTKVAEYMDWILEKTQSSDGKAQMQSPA
# Plasma [3] = assay: Anticoagulant potency in rat plasma assessed as concentration for doubling of prothrombin time; format: functional
# [4] = target: Urokinase-type plasminogen activator (Homo sapiens, UniProt P00749); assay: Inhibition of human urokinase
# Plasminogen = Plasminogen (Homo sapiens, UniProt P00747); assay: Inhibition of human plasmin
# Sequence of Plasminogen (P00747 97-580 limits assumed): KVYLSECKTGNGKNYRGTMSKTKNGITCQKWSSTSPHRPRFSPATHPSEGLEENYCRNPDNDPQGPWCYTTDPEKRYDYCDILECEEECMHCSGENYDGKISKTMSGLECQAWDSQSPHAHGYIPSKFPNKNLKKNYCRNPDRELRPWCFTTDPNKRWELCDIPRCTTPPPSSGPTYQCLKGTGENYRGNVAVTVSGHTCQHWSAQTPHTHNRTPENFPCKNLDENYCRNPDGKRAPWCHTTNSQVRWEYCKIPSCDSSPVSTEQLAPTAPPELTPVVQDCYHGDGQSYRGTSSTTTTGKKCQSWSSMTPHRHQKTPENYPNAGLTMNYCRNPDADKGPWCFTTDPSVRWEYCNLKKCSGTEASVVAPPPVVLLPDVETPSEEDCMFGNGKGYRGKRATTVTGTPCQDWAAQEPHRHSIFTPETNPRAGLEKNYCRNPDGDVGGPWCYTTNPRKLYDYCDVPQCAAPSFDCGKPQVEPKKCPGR
# Sequence of Plasminogen (P00747 581-810 limits assumed): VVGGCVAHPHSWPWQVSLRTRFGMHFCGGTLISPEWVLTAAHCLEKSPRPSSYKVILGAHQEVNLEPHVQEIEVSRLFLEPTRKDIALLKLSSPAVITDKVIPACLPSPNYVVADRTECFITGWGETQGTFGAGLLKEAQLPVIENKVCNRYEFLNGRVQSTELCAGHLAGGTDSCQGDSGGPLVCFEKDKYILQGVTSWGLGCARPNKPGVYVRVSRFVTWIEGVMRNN
# Canis familiaris [5] = assay: Ex vivo anticoagulant potency in dog assessed as prolongation of prothrombin time at 10 mg/kg, po after 6 hrs; format: functional, Canis lupus familiaris
# Plasma [6] = assay: Anticoagulant potency in dog plasma assessed as concentration for doubling of prothrombin time; format: functional, Canis lupus familiaris
# [7] = Volume of distribution at steady state in Beagle dog at 1 mg/kg, iv; format: ADME, organism-based, Canis lupus familiaris; design: dose 1 mg/kg, route intravenous; settings: in vivo, read-out: Vss
# [8] = Bioavailability in Beagle dog at 10 mg/kg, po normalized to 1 mg/kg, iv; format: ADME, organism-based, Canis lupus familiaris; settings: in vivo
# [9] = Clearance in Beagle dog at 1 mg/kg, iv; format: ADME, organism-based, Canis lupus familiaris; design: dose 1 mg/kg, route intravenous; settings: in vivo
# Plasma [10] = assay: Anticoagulant potency in human plasma assessed as concentration for doubling of prothrombin time; format: functional
# [11] = Half life in Beagle dog at 1 mg/kg, iv; format: ADME, organism-based, Canis lupus familiaris; design: dose 1 mg/kg, route intravenous; settings: in vivo
# [12] = Cmax in Beagle dog at 10 mg/kg, po; format: ADME, organism-based, Canis lupus familiaris; design: dose 10 mg/kg, route oral; settings: in vivo
# Coagulation factor X [13] = target: Coagulation factor X (Homo sapiens, UniProt P00742); assay: Inhibition of human F10a; settings: read-out: Ki app
# Sequence of Coagulation factor X (Homo sapiens, UniProt P00742) (P00742 41-179 limits assumed): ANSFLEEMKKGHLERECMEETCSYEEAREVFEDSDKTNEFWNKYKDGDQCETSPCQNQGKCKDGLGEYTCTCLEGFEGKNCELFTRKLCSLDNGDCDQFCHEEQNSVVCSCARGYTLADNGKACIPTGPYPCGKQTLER
# Sequence of Coagulation factor X (Homo sapiens, UniProt P00742) (P00742 235-488 limits assumed): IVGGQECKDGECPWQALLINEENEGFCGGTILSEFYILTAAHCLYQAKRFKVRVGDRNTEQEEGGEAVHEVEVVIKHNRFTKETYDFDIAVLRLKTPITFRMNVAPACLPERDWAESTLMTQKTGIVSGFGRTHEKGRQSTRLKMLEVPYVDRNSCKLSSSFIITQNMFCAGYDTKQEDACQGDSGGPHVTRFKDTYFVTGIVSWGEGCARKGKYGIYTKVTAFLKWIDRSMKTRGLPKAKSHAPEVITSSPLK
# [14] = Inhibition of dog F10a; design: species or system Canis lupus familiaris
# Trypsin = Trypsin (Homo sapiens, UniProt P07477+P07478+P35030); assay: Inhibition of human trypsin; format: protein assay
# Canis familiaris [15] = assay: Ex vivo anticoagulant potency in dog assessed as prolongation of prothrombin time at 10 mg/kg, po after 1 hr; format: functional, Canis lupus familiaris
# [16] = target: Tissue-type plasminogen activator (Homo sapiens, UniProt P00750); assay: Inhibition of human tPA
# Sequence of Tissue-type plasminogen activator (P00750 whole entry): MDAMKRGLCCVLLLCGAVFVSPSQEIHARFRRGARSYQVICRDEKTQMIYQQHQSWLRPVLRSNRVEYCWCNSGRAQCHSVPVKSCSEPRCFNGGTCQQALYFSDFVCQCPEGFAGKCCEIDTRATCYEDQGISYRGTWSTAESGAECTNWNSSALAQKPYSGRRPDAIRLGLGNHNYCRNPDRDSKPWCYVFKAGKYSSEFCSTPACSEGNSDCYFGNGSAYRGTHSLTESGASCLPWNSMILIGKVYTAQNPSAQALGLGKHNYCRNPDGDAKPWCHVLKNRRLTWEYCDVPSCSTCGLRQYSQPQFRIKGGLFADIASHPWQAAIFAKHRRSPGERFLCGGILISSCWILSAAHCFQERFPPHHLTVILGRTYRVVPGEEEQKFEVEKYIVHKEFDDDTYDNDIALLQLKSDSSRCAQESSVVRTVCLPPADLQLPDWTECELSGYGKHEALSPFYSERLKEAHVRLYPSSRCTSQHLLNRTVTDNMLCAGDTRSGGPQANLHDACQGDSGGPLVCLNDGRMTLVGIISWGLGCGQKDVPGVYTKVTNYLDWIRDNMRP
# Neutrophil elastase = target: T1, Neutrophil elastase (Homo sapiens, UniProt P08246); assay: Inhibition of human neutrophil elastase
# T1 sequence (P08246 whole entry): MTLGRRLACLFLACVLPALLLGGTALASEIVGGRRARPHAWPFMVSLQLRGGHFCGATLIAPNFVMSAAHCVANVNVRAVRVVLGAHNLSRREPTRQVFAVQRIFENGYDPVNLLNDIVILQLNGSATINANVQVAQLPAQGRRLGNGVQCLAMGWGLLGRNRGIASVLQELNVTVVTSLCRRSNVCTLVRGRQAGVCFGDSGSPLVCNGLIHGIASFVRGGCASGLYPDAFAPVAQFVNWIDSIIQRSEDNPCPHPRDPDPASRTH
# [17] = Inhibition of human chymotrypsin
# Cathepsin G = target: T2, Cathepsin G (Homo sapiens, UniProt P08311); assay: Inhibition of human cathepsin G
# T2 sequence (P08311 whole entry): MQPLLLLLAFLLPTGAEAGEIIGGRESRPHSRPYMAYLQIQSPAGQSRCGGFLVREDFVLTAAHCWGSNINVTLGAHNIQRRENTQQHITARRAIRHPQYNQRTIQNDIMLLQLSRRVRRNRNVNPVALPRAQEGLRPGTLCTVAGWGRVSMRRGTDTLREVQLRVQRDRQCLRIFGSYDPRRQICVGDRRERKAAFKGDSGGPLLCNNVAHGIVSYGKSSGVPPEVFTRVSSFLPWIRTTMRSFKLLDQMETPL
# Rattus norvegicus = assay: Inhibition of thrombosis in iv dosed Wistar rat vena cava stasis model; format: functional, organism-based
# Sequence of Coagulation factor XI (P03951 19-387 limits assumed): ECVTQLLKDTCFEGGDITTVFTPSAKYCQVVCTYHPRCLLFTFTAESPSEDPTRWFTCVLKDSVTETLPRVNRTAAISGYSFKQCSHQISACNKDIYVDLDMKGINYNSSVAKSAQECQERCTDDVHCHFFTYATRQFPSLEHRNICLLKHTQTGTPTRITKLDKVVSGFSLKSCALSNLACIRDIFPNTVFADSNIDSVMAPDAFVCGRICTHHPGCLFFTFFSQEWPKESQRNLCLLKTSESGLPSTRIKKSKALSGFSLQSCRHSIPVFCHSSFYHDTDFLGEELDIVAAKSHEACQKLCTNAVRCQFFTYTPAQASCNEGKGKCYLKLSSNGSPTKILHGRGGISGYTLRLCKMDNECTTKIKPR
# Sequence of Coagulation factor XI (P03951 388-625 limits assumed): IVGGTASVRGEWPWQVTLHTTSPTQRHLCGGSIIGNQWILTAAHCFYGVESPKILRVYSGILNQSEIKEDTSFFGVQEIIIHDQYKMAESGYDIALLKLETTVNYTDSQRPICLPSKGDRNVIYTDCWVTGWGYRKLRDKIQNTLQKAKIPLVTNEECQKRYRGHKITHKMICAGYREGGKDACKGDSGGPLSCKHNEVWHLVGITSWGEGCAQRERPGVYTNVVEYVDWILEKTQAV
SMILES,Ki (Coagulation factor XI),Ki (Prothrombin),Ki (Coagulation factor X [2]),Ki (Plasma kallikrein),Activity (Plasma [3]),Ki [4],Ki (Plasminogen),Activity (Plasma [6]),Vd [7],bioavailability [8],clearance [9],Activity (Plasma [10]),half-life [11],Cmax [12],Ki [14],Ki (Trypsin),Ki [16],Ki (Neutrophil elastase),Ki [17],Ki (Cathepsin G),other results
COc1cc(Cl)cc(C(=O)Nc2ccc(Cl)cn2)c1NC(=O)c1scc(CN(C)C2=NCCO2)c1Cl,> 10 µM,0.09 µM,0.29 nM,0.037 µM,93 µM,> 5 µM,> 10 µM,0.35 µM,1.6 L/kg,56%,5.8 mL/min/kg,0.36 µM,3.2 h,1900 ng/mL,0.00015 µM,> 10 µM,> 5 µM,> 10 µM,> 10 µM,> 10 µM,Fold change (Canis familiaris [1]): 5; Fold change (Canis familiaris [5]): 4; Ki (Coagulation factor X [13]): 0.007 nM; Fold change (Canis familiaris [15]): 3.2
CNCc1csc(C(=O)Nc2c(OC)cc(Cl)cc2C(=O)Nc2ccc(Cl)cn2)c1Cl,> 10 µM,3.7 µM,2.5 nM,1 µM,7.3 µM,> 5 µM,> 10 µM,4.35 µM,1.4 L/kg,75%,1.6 mL/min/kg,1.6 µM,10.5 h,5100 ng/mL,0.0017 µM,> 10 µM,> 5 µM,10 µM,> 10 µM,> 10 µM,Ki (Coagulation factor X [13]): 0.21 nM; Activity (Rattus norvegicus): Dose-dependent effect
CNc1nccn1Cc1csc(C(=O)Nc2c(OC)cc(Cl)cc2C(=O)Nc2ccc(Cl)cn2)c1Cl,> 5 µM,0.99 µM,0.06 nM,0.045 µM,2.56 µM,> 5 µM,> 5 µM,4.2 µM,1 L/kg,98%,4.4 mL/min/kg,1.2 µM,3.4 h,3700 ng/mL,0.00031 µM,> 5 µM,> 5 µM,> 5 µM,> 5 µM,> 5 µM,Activity (Rattus norvegicus): Dose-dependent effect
